Values joined by “and” are separate entries in the source; they are usually repeats but may differ in a detail not shown here. Equal values may be shown once. Read-outs that look alike come from different tables or passages of the source.
Assays:
[1] = tested on: Salmonella typhimurium TA98; conditions: TA 98, no S9
Method: (§1) In the preincubation experiment, test compounds and mutagen, each having a volume of 0.1 mL of varying concentrations, were preincubated at 37°C for 30 min and then 0.1 mL of 1 × 10^7 CFU/mL density of the bacterial culture was added, followed by the addition of 2.5 mL of top agar at 45°C (containing 0.5% NaCl and 0.6% agar) supplemented with 0.5 mM histidine-biotin. […] The combined solutions were vortexed and poured onto minimal glucose plates (40% glucose solution and Vogel Bonner medium). The plates were incubated at 37°C for 48 h and the numbers of histidine-independent revertants colonies were scored.
(§2) Survival of the bacteria was routinely monitored for each experiment. Parallel controls were run with compounds alone at all concentrations to test the possible toxicity. The concentrations of the test samples for investigating the antimutagenicity were 50, 100, 200, and 500 μM. […] All the test samples and mutagens were dissolved in DMSO (final conc., 0.01%). […] Plates were set up in triplicate for each concentration and the entire experiment was repeated three times. Inhibition of mutagenicity was expressed as percentage decrease of reverse mutation and calculated as (1) Percent inhibition=[(a−b)/(a−c)]×100, where a = number of histidine revertants induced by mutagen, b = number of histidine revertants induced by mutagen in the presence of test compound, and c = number of revertants induced in negative control.

[2] = tested on: Salmonella typhimurium TA100; conditions: TA 100, no S9
Method: as §1, §2

[3] = tested on: Salmonella typhimurium TA102; conditions: TA 102, no S9
Method: as §1, §2

[4] = tested on: Salmonella typhimurium TA97a; conditions: TA 97a, no S9
Method: as §1, §2

[5] = positive control MMS 1.5 μg (Table 8)

For COS(C)(=O)=O [MMS, Methyl methanesulfonate, reference compound], the “Number of His+ revertants colonies/plate” value ([1]; positive control MMS 1.0 μg) was 53.7 ± 1.5 colonies/plate, the “Number of His+ revertants colonies/plate” value [1, 5] was 53.7 ± 1.5 colonies/plate and the “Number of His+ revertants colonies/plate” value ([2]; positive control MMS 1.0 μg) was 963.0 ± 11.4 colonies/plate. For the same compound, the “Number of His+ revertants colonies/plate” value [2, 5] was 963.0 ± 11.4 colonies/plate, the “Number of His+ revertants colonies/plate” value ([3]; positive control MMS 1.0 μg) was 1237.0 ± 14.5 colonies/plate and the “Number of His+ revertants colonies/plate” value [3, 5] was 1237.0 ± 14.5 colonies/plate. The “Number of His+ revertants colonies/plate” value ([4]; positive control MMS 1.0 μg) was 449 colonies/plate and 449.7 ± 7.2 colonies/plate and the “Number of His+ revertants colonies/plate” value [4, 5] was 449.7 ± 7.2 colonies/plate.

With [N-]=[N+]=[N-].[Na+] [NaN3, Sodium azide, reference compound] the “Number of His+ revertants colonies/plate” value ([1]; positive control NaN3 1.5 μg) was 52.3 ± 1.8 colonies/plate, the “Number of His+ revertants colonies/plate” value ([2]; positive control NaN3 1.5 μg) was 361.3 ± 11.0 colonies/plate and the “Number of His+ revertants colonies/plate” value ([3]; positive control NaN3 1.5 μg) was 370.0 ± 9.0 colonies/plate and 355.0 ± 15.5 colonies/plate. The “Number of His+ revertants colonies/plate” value ([4]; positive control NaN3 1.5 μg) was 256.0 ± 11.7 colonies/plate.
